Test results taken from ChEMBL document CHEMBL1201862, “PubChem BioAssay data set” (2004).
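Compound exposure: 48 hours, 5 concentrations, 96-well plates. Here, GI50 denotes the concentration required for 50% inhibition of growth.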 Active and inactive are the calls of the source. No stated cut-off is given here; in the data, active = GI50 up to about 1.1 µM and inactive = higher.

Tests used:
Test in all cases: inhibition of tumour cell growth, NCI panel, 48 h
EKVX = tested on: EKVX
CCRF-CEM = tested on: CCRF-CEM
RPMI-8226 = tested on: RPMI-8226
NCI-H23 = tested on: NCI-H23
MOLT-4 = tested on: MOLT-4
K562 = tested on: K562
M19-MEL = tested on: M19-MEL
HOP-62 = tested on: HOP-62
LXFL 529 = tested on: LXFL 529
HCT-116 = tested on: HCT-116
HT-29 = tested on: HT-29
A498 = tested on: A498
UO-31 = tested on: UO-31
UACC-257 = tested on: UACC-257
DLD-1 = tested on: DLD-1
NCI-H522 = tested on: NCI-H522
786-0 = tested on: 786-0

Compound | GI50 (EKVX) | GI50 (CCRF-CEM) | GI50 (RPMI-8226) | GI50 (NCI-H23) | GI50 (MOLT-4) | GI50 (K562) | GI50 (M19-MEL) | GI50 (HOP-62) | GI50 (LXFL 529) | GI50 (HCT-116) | GI50 (HT-29) | GI50 (A498) | GI50 (UO-31) | GI50 (UACC-257) | GI50 (DLD-1) | GI50 (NCI-H522) | GI50 (786-0)
O=C1c2ccc(O)c(O)c2C(=O)c2c(O)ccc(O)c21 [QUINALIZARIN] | 26.9 µM (inactive) | 20.2 µM (inactive) | 28.2 µM (inactive) | 31.6 µM (inactive) | 23.1 µM (inactive) | 26.5 µM (inactive) | 33.9 µM (inactive) | 26.8 µM (inactive) | 27.5 µM (inactive) | 20.6 µM (inactive) | 35.2 µM (inactive) | 26.3 µM (inactive) | 21.3 µM (inactive) | 20.5 µM (inactive) | 32.5 µM (inactive) | 1.45 µM (inactive) | 26.3 µM (inactive)
N#Cc1cccc(NC(=O)c2ccc(C(=O)O)c(C(=O)c3ccc(C(=O)O)c(C(=O)Nc4cccc(C#N)c4)c3)c2)c1 | > 100 µM (inactive) | > 100 µM (inactive) | > 100 µM (inactive) | > 100 µM (inactive) | > 100 µM (inactive) | > 100 µM (inactive) | > 100 µM (inactive) | > 100 µM (inactive) | > 100 µM (inactive) | > 100 µM (inactive) | > 100 µM (inactive) | > 100 µM (inactive) | > 100 µM (inactive) | > 100 µM (inactive) | > 100 µM (inactive) | > 100 µM (inactive) | > 100 µM (inactive)
COC(=O)C(=O)C(C(=O)C(=O)Nc1ccc(OC)cc1[N+](=O)[O-])c1nc2ccc([N+](=O)[O-])cc2nc1O (centres undefined) | > 100 µM (inactive) | > 100 µM (inactive) | > 100 µM (inactive) | > 100 µM (inactive) | > 100 µM (inactive) | > 100 µM (inactive) | > 100 µM (inactive) | > 100 µM (inactive) | > 100 µM (inactive) | > 100 µM (inactive) | > 100 µM (inactive) | > 100 µM (inactive) | > 100 µM (inactive) | > 100 µM (inactive) | > 100 µM (inactive) | > 100 µM (inactive) | > 100 µM (inactive)
C1CC[N+]23CCCC[N+]2(C1)CCCC3 (centres undefined) | > 100 µM (inactive) | > 100 µM (inactive) | > 100 µM (inactive) | > 100 µM (inactive) | > 100 µM (inactive) | > 100 µM (inactive) | > 100 µM (inactive) | > 100 µM (inactive) | > 100 µM (inactive) | > 100 µM (inactive) | > 100 µM (inactive) | > 100 µM (inactive) | > 100 µM (inactive) | > 100 µM (inactive) | > 100 µM (inactive) | > 100 µM (inactive) | > 100 µM (inactive)
Fc1ccc(C2SCc3nc4ccccc4n32)cc1F (centres undefined) | 39.2 µM (inactive) | 34.1 µM (inactive) | 13.3 µM (inactive) | 21.1 µM (inactive) | 21.4 µM (inactive) | 24.2 µM (inactive) | 28.6 µM (inactive) | 35.8 µM (inactive) | 23.4 µM (inactive) | 26.8 µM (inactive) |  | 36.2 µM (inactive) | 13.6 µM (inactive) | 42.1 µM (inactive) | 34.2 µM (inactive) | 18.3 µM (inactive) | 55.3 µM (inactive)
CCCCCCCCCCCCCC(=O)O[C@H]1CC[C@H](NC(=O)[C@H](OC)[C@H](O)[C@@H](O)[C@H](O)/C=C/C(C)C)C(=O)N(C)C1 [BENGAMIDE B] | 1.08 µM (active) | 0.0122 µM (active) | 0.0895 µM (active) | 0.00977 µM (active) | 0.00643 µM (active) | 0.00811 µM (active) | 0.00611 µM (active) | 0.00809 µM (active) | 0.0114 µM (active) | 0.00247 µM (active) | 0.00479 µM (active) | > 15 µM (inactive) | 0.0208 µM (active) | 0.0331 µM (active) | 0.00705 µM (active) | 0.00577 µM (active) | 0.00457 µM (active)
CN(C)CC[N+]1=Nc2cccc3cccc(c23)N1 | > 84.7 µM (inactive) | 27.8 µM (inactive) | 35.1 µM (inactive) | > 77.3 µM (inactive) | 21.6 µM (inactive) | 26.4 µM (inactive) | 47.1 µM (inactive) | 71 µM (inactive) | 58.1 µM (inactive) | 3.86 µM (inactive) | 35.3 µM (inactive) | 44.6 µM (inactive) | 13.9 µM (inactive) | > 100 µM (inactive) | > 44.4 µM (inactive) | 33.7 µM (inactive) | 55.1 µM (inactive)
Nc1ccc(C(=O)NN2C(=O)C(Cl)C2c2cccc(O)c2)cc1 (centres undefined) | 21.5 µM (inactive) | 5.55 µM (inactive) | 14.7 µM (inactive) | 15.5 µM (inactive) | 11.3 µM (inactive) | 10.8 µM (inactive) | 21.5 µM (inactive) | 15.4 µM (inactive) | 11.7 µM (inactive) | 4.4 µM (inactive) | 17.4 µM (inactive) | 35.2 µM (inactive) | 19.7 µM (inactive) | 18.3 µM (inactive) | 14.4 µM (inactive) | 1.75 µM (inactive) | 13.4 µM (inactive)
COC(=O)C(=O)C(C(=O)C(=O)Nc1ccc(F)cc1)c1nc2ccc([N+](=O)[O-])cc2nc1O (centres undefined) | > 100 µM (inactive) | > 100 µM (inactive) | > 100 µM (inactive) | > 100 µM (inactive) |  | > 100 µM (inactive) | > 100 µM (inactive) | > 100 µM (inactive) | > 100 µM (inactive) | > 100 µM (inactive) | > 100 µM (inactive) | > 100 µM (inactive) | > 100 µM (inactive) | > 100 µM (inactive) | > 100 µM (inactive) | > 100 µM (inactive) | > 100 µM (inactive)
CCCCN(CCCC)CC(C(=O)Nc1ccc([N+](=O)[O-])cc1[N+](=O)[O-])/C(C)=N\NC(=O)C[N+](C)(C)C (centres undefined) | 30.3 µM (inactive) | 41.8 µM (inactive) | 27.7 µM (inactive) | > 100 µM (inactive) | > 100 µM (inactive) | 28.8 µM (inactive) | > 100 µM (inactive) | > 100 µM (inactive) | 74 µM (inactive) | 69.5 µM (inactive) | 75.9 µM (inactive) | 52.7 µM (inactive) | 66.5 µM (inactive) | > 100 µM (inactive) | 69.3 µM (inactive) | 41.9 µM (inactive) | > 100 µM (inactive)
NC(=O)C12C3C4C1C1C2C3C41C(N)=O (centres undefined) | > 100 µM (inactive) | > 100 µM (inactive) | > 100 µM (inactive) | > 100 µM (inactive) | > 100 µM (inactive) | > 100 µM (inactive) | > 100 µM (inactive) | > 100 µM (inactive) | > 100 µM (inactive) | > 100 µM (inactive) | > 100 µM (inactive) | > 100 µM (inactive) | > 100 µM (inactive) | > 100 µM (inactive) | > 100 µM (inactive) | > 100 µM (inactive) | > 100 µM (inactive)
Cc1ccccc1-n1c(=O)sc2c(=O)n(-c3ccccc3)c(=S)[nH]c21 | > 100 µM (inactive) | 47.3 µM (inactive) | > 100 µM (inactive) | > 100 µM (inactive) | > 100 µM (inactive) | > 100 µM (inactive) | > 100 µM (inactive) | > 100 µM (inactive) | > 100 µM (inactive) | > 100 µM (inactive) | > 100 µM (inactive) | > 100 µM (inactive) | > 100 µM (inactive) | > 100 µM (inactive) | > 100 µM (inactive) | 42.6 µM (inactive) | > 100 µM (inactive)
COc1cc(/C=N/N=C(\N)NO)cc(Cl)c1O | 30.9 µM (inactive) | 38.1 µM (inactive) | > 100 µM (inactive) | 36.9 µM (inactive) | 50.2 µM (inactive) | 53.2 µM (inactive) | 27.8 µM (inactive) | 35.7 µM (inactive) | 44 µM (inactive) | 55.7 µM (inactive) | > 100 µM (inactive) | 34.4 µM (inactive) | 23.9 µM (inactive) | 73.8 µM (inactive) | 71.1 µM (inactive) | > 100 µM (inactive) | 43.7 µM (inactive)
